Experimental data taken from PMC4310350 (Drug Design, Development and Therapy, 2015).
Entries after “also recorded” stand apart in the source; their conditions may differ. Read-outs that look alike come from different tables or passages of the source.

Experiments:
[1] = target: T1, OAT3 (Homo sapiens, UniProt Q8TCC7); conditions: 10 μM catalposide, HEK293-OAT3
T1 sequence (Q8TCC7 1-542): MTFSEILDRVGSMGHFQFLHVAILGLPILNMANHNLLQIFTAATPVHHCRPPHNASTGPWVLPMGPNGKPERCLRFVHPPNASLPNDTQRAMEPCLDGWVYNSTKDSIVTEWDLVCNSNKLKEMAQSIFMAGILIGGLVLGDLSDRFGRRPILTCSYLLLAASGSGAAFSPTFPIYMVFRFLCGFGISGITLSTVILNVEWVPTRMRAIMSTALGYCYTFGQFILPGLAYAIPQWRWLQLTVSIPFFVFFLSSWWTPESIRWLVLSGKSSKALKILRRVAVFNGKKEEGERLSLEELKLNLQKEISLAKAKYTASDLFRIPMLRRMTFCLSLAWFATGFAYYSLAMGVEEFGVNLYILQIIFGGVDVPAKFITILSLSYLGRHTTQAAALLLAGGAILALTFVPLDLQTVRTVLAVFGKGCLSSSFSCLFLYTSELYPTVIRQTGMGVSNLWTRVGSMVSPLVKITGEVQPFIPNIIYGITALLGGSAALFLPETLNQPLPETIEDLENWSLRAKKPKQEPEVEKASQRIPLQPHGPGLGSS

[2] = target: T1, OAT3; assay: in vitro; conditions: HEK293 cells transiently expressing OAT3, probe catalposide 10 μM
[3] = target: T1, OAT3; conditions: cited from earlier work
[4] = target: T2, OAT1 (Homo sapiens, UniProt Q4U2R8); conditions: cited from earlier work
T2 sequence (Q4U2R8 1-563): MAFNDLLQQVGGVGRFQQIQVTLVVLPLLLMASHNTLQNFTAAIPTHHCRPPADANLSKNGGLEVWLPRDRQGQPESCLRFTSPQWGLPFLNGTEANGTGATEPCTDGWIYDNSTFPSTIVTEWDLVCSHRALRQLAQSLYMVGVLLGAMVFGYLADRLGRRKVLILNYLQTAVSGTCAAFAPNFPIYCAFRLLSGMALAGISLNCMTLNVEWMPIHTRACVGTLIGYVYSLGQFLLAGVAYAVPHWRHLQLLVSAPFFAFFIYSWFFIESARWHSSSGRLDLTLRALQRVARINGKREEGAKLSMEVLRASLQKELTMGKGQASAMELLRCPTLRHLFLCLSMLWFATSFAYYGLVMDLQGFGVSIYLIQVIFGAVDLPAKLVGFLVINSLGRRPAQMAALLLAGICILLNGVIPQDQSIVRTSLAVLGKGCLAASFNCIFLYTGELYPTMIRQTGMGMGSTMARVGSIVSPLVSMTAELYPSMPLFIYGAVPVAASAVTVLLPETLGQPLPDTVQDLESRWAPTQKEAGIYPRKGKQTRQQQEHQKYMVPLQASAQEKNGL

[5] = target: T3, OATP1B3 (Homo sapiens, UniProt Q9NPD5); conditions: cited from earlier work
T3 sequence (Q9NPD5 1-702): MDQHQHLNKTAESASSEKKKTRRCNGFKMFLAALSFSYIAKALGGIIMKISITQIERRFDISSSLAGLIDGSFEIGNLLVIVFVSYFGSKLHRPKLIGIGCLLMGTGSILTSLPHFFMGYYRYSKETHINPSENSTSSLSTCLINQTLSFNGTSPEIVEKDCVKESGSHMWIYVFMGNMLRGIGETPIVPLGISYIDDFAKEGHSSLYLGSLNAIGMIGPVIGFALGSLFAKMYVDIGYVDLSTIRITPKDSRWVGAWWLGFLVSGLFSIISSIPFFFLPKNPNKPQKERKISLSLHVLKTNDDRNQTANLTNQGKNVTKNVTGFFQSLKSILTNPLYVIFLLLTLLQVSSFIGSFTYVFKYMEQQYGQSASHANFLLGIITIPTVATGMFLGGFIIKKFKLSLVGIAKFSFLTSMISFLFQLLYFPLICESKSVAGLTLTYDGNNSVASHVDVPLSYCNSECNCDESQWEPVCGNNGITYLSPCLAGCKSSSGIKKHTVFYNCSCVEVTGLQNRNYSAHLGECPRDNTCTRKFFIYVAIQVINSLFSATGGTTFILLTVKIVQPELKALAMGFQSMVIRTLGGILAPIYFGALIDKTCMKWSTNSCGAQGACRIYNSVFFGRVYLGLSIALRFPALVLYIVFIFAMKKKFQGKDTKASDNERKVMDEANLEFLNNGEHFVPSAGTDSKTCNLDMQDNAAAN

[6] = system: OATP2B1; conditions: cited from earlier work
[7] = substrate: O=C(O[C@H]1[C@@H]2C=CO[C@@H](O[C@@H]3O[C@H](CO)[C@@H](O)[C@H](O)[C@H]3O)[C@@H]2[C@@]2(CO)O[C@@H]12)c1ccc(O)cc1; assay: Uptake in HEK293 cells overexpressing OAT3; assay type: in vitro ADME; conditions: other: OAT3-mediated uptake, 2–500 μM catalposide, 10 minutes; 37.0 °C

Molecule | Effect on OAT3-mediated catalposide uptake (words) [1] | Inhibition of OAT3 transport activity [3] | Inhibition of OAT1 transport activity [4] | Inhibition of OATP1B3 transport activity [5] | further results
CCCN(CCC)S(=O)(=O)c1ccc(C(=O)O)cc1 [probenecid] | decreased to basal levels; also recorded: inhibited OAT3-mediated catalposide transport in a concentration-dependent manner | – | – | – | inhibition at 10 min, 10 μM [2]: 84.5%
O=c1cc(-c2ccccc2)oc2cc(O)c(O)c(O)c12 [Bicalein] | – | significantly inhibited | significantly inhibited | significantly inhibited | –
COc1c(O)cc(O)c2c(=O)cc(-c3ccccc3)oc12 [wogonin] | – | significantly inhibited | significantly inhibited | significantly inhibited | –
CN/C(=N/CCSCc1nc[nH]c1C)NC#N [cimetidine] | decreased to basal levels | – | – | – | Effect on OAT3-mediated catalposide uptake (words) ([1]; listed as Cimetidine): inhibited OAT3-mediated catalposide transport in a concentration-dependent manner; inhibition at 10 min, 100 μM [2]: 70.4%
COc1ccc(-c2oc3c(CC=C(C)C)c(O[C@@H]4O[C@H](CO)[C@@H](O)[C@H](O)[C@H]4O)cc(O)c3c(=O)c2O[C@@H]2O[C@@H](C)[C@H](O)[C@@H](O)[C@H]2O)cc1 [icariin] | – | – | – | – | Inhibition of OATP2B1 activity [6]: potentially inhibited; Inhibition of OATP1B3 activity [5]: potentially inhibited
OAT3 (Homo sapiens) (protein) MTFSEILDRVGSMGHFQFLHVAILGLPILNMANHNLLQIFTAATPVHHCRPPHNASTGPWVLPMGPNGKPERCLRFVHPPNASLPNDTQRAMEPCLDGWVYNSTKDSIVTEWDLVCNSNKLKEMAQSIFMAGILIGGLVLGDLSDRFGRRPILTCSYLLLAASGSGAAFSPTFPIYMVFRFLCGFGISGITLSTVILNVEWVPTRMRAIMSTALGYCYTFGQFILPGLAYAIPQWRWLQLTVSIPFFVFFLSSWWTPESIRWLVLSGKSSKALKILRRVAVFNGKKEEGERLSLEELKLNLQKEISLAKAKYTASDLFRIPMLRRMTFCLSLAWFATGFAYYSLAMGVEEFGVNLYILQIIFGGVDVPAKFITILSLSYLGRHTTQAAALLLAGGAILALTFVPLDLQTVRTVLAVFGKGCLSSSFSCLFLYTSELYPTVIRQTGMGVSNLWTRVGSMVSPLVKITGEVQPFIPNIIYGITALLGGSAALFLPETLNQPLPETIEDLENWSLRAKKPKQEPEVEKASQRIPLQPHGPGLGSS | – | – | – | – | Km [7]: 41.5 µM
